Measured values: patent US20250327032A1, “AGENT FOR AVOIDING IMMUNE RESPONSE OF TRANSGENIC CELLS” (HYPERION DRUG DISCOVERY CO., LTD., priority 2021, published 2025)

Experiments:
Assay type in all cases: cell-based
[1] = system: human mesenchymal stem cells; test: Introduction of TERT plasmid by lipofection, number of viable cells; conditions: JSH-23 1 μM; TERT plasmid DNA 10 pg/cell
Procedure: (§1) Human mesenchymal stem cells were seeded in a 6-well plate to be about 10,000 cells/cm^2. As a culture solution, αMEM (+10% serum) supplemented with 1 μM of JSH-23 was used. As a control, αMEM (+10% serum) supplemented with 0.1% (v/v) DMSO instead of JSH-23 was used as a culture solution.
A lipofection solution was prepared by adding Lipofectamine RNAiMAX and TERT plasmid DNA to OptiMEM. The amount of plasmid DNA was prepared to be 10 pg/cell.
Next, the lipofection solution was added to the plate seeded with human mesenchymal stem cells, and cultured in a CO2 incubator at 37° C. for 18 hours. After culturing, all the culture solution comprising the lipofection solution was removed and replaced with a new culture solution having the same composition as before the addition of the lipofection solution.
After another 6 hours, the above lipofection solution was newly prepared, added again to the plate seeded with human mesenchymal stem cells, and cultured in a CO2 incubator at 37° C. for 18 hours. These steps were repeated so that the introduction of genes was performed a total of 4 times.
Twenty-four hours after the final introduction of genes, the cells were detached with a cell detachment solution, centrifuged at 600×g for 5 minutes using a centrifuge, to collect the cells. The collected cells were counted using a hemocytometer.

[2] = system: TNF-α; test: TNF-α expression level (qPCR) after introduction of GFP mRNA containing pseudouridine; conditions: human mesenchymal stem cells; JSH-23 10 μM; GFP mRNA containing pseudouridine 10 pg/cell; compared to pseudouridine only
Procedure: as §1, with “Reduction of TNF-α expression level using JSH-23 in introduction of GFP mRNA into human mesenchymal stem cells (hMSCs) Human” for “Human”, “with 10” for “with 1”
A lipofection solution was prepared by adding Lipofectamine RNAiMAX and fluorescent protein GFP mRNA to OptiMEM. The GFP mRNA containing pseudouridine instead of uridine was used. It was prepared so that the amount of mRNA was 10 pg/cell. The prepared lipofection solution was mixed well according to the manufacturer's recommended protocol and allowed to stand at room temperature for about 15 minutes.
Next, each lipofection solution was added to the plate seeded with human mesenchymal stem cells or human myoblasts, and cultured in a CO2 incubator at 37° C. for about 1 day (18 hours). […]
cDNA was synthesized from the purified RNA using SuperScript™ III Reverse Transcriptase according to the manufacturer's protocol. qPCR was performed using synthesized cDNA and PCR primers and PowerTrack™ SYBR Green Master Mix. The measured Ct value of TNF-α was normalized with the Ct value of β-actin, a housekeeping gene.

[3] = system: human mesenchymal stem cells; test: Introduction of GFP viral vector (polybrene method), yield of GFP-positive cells; conditions: JSH-23 1 μM; GFP viral vector MOI 10, polybrene 5 μg/mL
Procedure: Human mesenchymal stem cells were seeded in a 6-well plate to be about 2,000 cells/cm^2. Human myoblasts were seeded in another 6-well plate to be about 2,000 cells/cm^2. As a culture solution, a basal medium for each cell supplemented with JSH-23 was used. JSH-23 was added at 1 μM to the culture solution used for human mesenchymal stem cells, and at 0.1 μM to the culture solution used for human myoblasts. As a control, a basal medium, i.e., αMEM (+10% serum) for human mesenchymal stem cells and MCDB131 (+10% serum) for human myoblasts, to which 0.1% (v/v) DMSO instead of JSH-23 was added was used as a culture solution.
A mixed solution was prepared by mixing GFP viral vector and a polybrene solution. The amount of GFP viral vector was prepared to be MOI of 10, and the amount of polybrene was prepared to be 5 μg/mL. […]
Four days after the addition of the virus-free culture solution, the cells were detached with a cell detachment solution and centrifuged at 600×g for 5 minutes using a centrifuge, to collect the cells. The collected cells were counted using a hemocytometer. Furthermore, the GFP-positive percentage of the collected cells was measured using a flow cytometer. The yield of the number of GFP-positive cells was calculated from the number of cells counted and the GFP-positive percentage.

Cc1ccc(NCCCc2ccccc2)c(N)c1 [JSH-23]
number of viable cells compared to the control (control set to 1) [1]: ≥ 1.4 times | expression level of TNF-α (normalized with β-actin) [2]: further reduced | number of GFP-positive cells relative to control [3]: increased
